Assay: Estimated solubility of the salt in organic solvents
Format: physicochemical
Description: (b) The Form B salt described in (a) above was also prepared by dissolving, in a vial, 20% w of a sample of the benzoate salt prepared by the method of Example 1(b) (Form A) in a solvent such as methanol (>20 mg/ml), ethanol (>20 mg/ml), n-propanol (>20 mg/ml), isopropanol (8.5 mg/ml) or acetone (9.6 mg/ml). The figures in brackets indicate the estimated solubility of the salt in these solvents. The vial was then sealed and the suspension was homogenised at ambient temperature (20° C.) using a magnet. Stirring and temperature were maintained for a period of at least 7 days after which time a sample of the material obtained was dried and tested by XRPD. XRPD confirmed that there had been complete transformation of Form A to Form B.
(a) Form B was prepared by dissolving, in a vial, 20% w of a sample of the furoate salt prepared by the method of Example 1(b) (Form A) in a solvent such as ethanol (16 mg/ml) or 2-butanol (8 mg/ml). The figures in brackets indicate the estimated solubility of the salt in these solvents. The vial was then sealed and the suspension was homogenised at ambient temperature (20° C.) using a magnet. Stirring and temperature were maintained for a period of at least 7 days after which time a sample of the material obtained was dried and tested by XRPD. XRPD confirmed that there had been complete transformation of Form A to Form B.

## CC(=O)Nc1ccc(O)cc1OC[C@@](C)(O)CNC1CCN(Cc2ccc(Cl)cc2)CC1.O=C(O)c1ccco1 [1(c), N-{2-[((2S)-3-{[1-(4-chlorobenzyl)piperidin-4-yl]amino}-2-hydroxy-2-methylpropyl)oxy]-4-hydroxyphenyl}acetamide furoate (1:1 Salt), Form A]
2-butanol
  estimated solubility of the salt: 8 mg/mL
ethanol
  estimated solubility of the salt: 16 mg/mL

## CC(=O)Nc1ccc(O)cc1OC[C@@](C)(O)CNC1CCN(Cc2ccc(Cl)cc2)CC1.O=C(O)c1ccccc1 [Example 1(b), N-{2-[((2S)-3-{[1-(4chlorobenzyl)piperidin-4-yl]amino}-2-hydroxy-2-methylpropyl)oxy]-4-hydroxyphenyl}acetamide benzoate (1:1 Salt), Form A]
acetone
  estimated solubility of the salt: 9.6 mg/mL
ethanol
  estimated solubility of the salt: > 20 mg/mL
isopropanol
  estimated solubility of the salt: 8.5 mg/mL
methanol
  estimated solubility of the salt: > 20 mg/mL
n-propanol
  estimated solubility of the salt: > 20 mg/mL
